Results reported in ChEMBL document CHEMBL3045406, “Enantioselective Relieving Activity of α-Methylbenzylphenylureas toward Bensulfuron-methyl Injury to Rice (Oryza sativa)” (Biosci Biotechnol Biochem, 1999).

Assays:
Oryza sativa [1] = assay: Relieving activity against bensulfuron-methyl induced injury to Oryza sativa (rice) assessed as growth rate at 1 uM (Rbv = 46 to 53%); format: functional
[2] = Hydrophobicity, log K of the compound; format: physicochemical; details: octanol/water
Oryza sativa [3] = assay: Effect on Oryza sativa (rice) assessed as growth rate at 0.1 uM relative to control; format: organism-based; details: in vivo
Oryza sativa [4] = assay: Effect on Oryza sativa (rice) assessed as growth rate at 1 uM relative to control; format: organism-based; details: in vivo
Oryza sativa [5] = assay: Safener indices, ratio of compound effect of Oryza sativa (rice) growth rate to relieving activity against bensulfuron-methyl induced injury to Oryza sativa growth rate at 1 uM
Oryza sativa [6] = assay: Effect on Oryza sativa (rice) assessed as growth rate at 10 uM relative to control; format: organism-based; details: in vivo
Oryza sativa [7] = assay: Safener indices, ratio of compound effect of Oryza sativa (rice) growth rate to relieving activity against bensulfuron-methyl induced injury to Oryza sativa growth rate at 0.1 uM
Oryza sativa [8] = assay: Relieving activity against bensulfuron-methyl induced injury to Oryza sativa (rice) assessed as growth rate at 10 uM (Rbv = 46 to 53%); format: functional
Oryza sativa [9] = assay: Relieving activity against bensulfuron-methyl induced injury to Oryza sativa (rice) assessed as growth rate at 0.1 uM (Rbv = 46 to 53%); format: functional
Oryza sativa [10] = assay: Safener indices, ratio of compound effect of Oryza sativa (rice) growth rate to relieving activity against bensulfuron-methyl induced injury to Oryza sativa growth rate at 10 uM

Row | log K [2] | Activity (Oryza sativa [3]) | Activity (Oryza sativa [4]) | Activity (Oryza sativa [6]) | SMILES | Activity (Oryza sativa [1]) | Ratio (Oryza sativa [5]) | Ratio (Oryza sativa [7]) | Activity (Oryza sativa [8]) | Activity (Oryza sativa [9]) | Ratio (Oryza sativa [10])
1 | 0.439 | 103% | 101% | 101% | C[C@H](NC(=O)Nc1ccc(Cl)cc1)c1ccccc1 | 83% | 64 | 21 | 88% | 63% | 74
2 | 0.394 | 101% | 100% | 99% | C[C@H](NC(=O)Nc1ccc(F)cc1F)c1ccccc1 | 79% | 56 | 28 | 93% | 65% | 85
3 | 0.486 | 99% | 104% | 106% | C[C@H](NC(=O)Nc1ccccc1Cl)c1ccccc1 | 91% | 80 | 50 | 98% | 75% | 95
4 | 0.47 | 97% | 91% | 83% | C[C@@H](NC(=O)Nc1cccc(Cl)c1)c1ccccc1 | 57% | 19 | -2 | 61% | 50% | 32
5 | 0.47 | 103% | 99% | 103% | C[C@H](NC(=O)Nc1cccc(Cl)c1)c1ccccc1 | 79% | 57 | 31 | 92% | 68% | 82
6 | 0.439 | 96% | 95% | 87% | C[C@@H](NC(=O)Nc1ccc(Cl)cc1)c1ccccc1 | 80% | 61 | 1 | 84% | 50% | 71
7 | 0.504 | 99% | 100% | 94% | C[C@@H](NC(=O)Nc1ccccc1Br)c1ccccc1 | 60% | 20 | 6 | 79% | 53% | 61
8 | 0.504 | 101% | 99% | 102% | C[C@H](NC(=O)Nc1ccccc1Br)c1ccccc1 | 87% | 74 | 32 | 98% | 67% | 97
9 | 0.512 | 100% | 100% | 99% | C[C@@H](NC(=O)Nc1cccc(Br)c1)c1ccccc1 | 80% | 59 | 31 | 92% | 66% | 85
10 | 0.512 | 100% | 100% | 99% | C[C@H](NC(=O)Nc1cccc(Br)c1)c1ccccc1 | 80% | 59 | 31 | 92% | 66% | 85
11 | 0.488 | 100% | 95% | 87% | C[C@@H](NC(=O)Nc1ccc(Br)cc1)c1ccccc1 | 77% | 55 | 5 | 86% | 53% | 76
12 | 0.488 | 98% | 97% | 96% | C[C@H](NC(=O)Nc1ccc(Br)cc1)c1ccccc1 | 79% | 59 | 24 | 84% | 62% | 69
13 | 0.502 | 100% | 100% | 96% | C[C@@H](NC(=O)Nc1ccccc1I)c1ccccc1 | 68% | 34 | 19 | 84% | 61% | 69
14 | 0.502 | 99% | 100% | 98% | C[C@H](NC(=O)Nc1ccccc1I)c1ccccc1 | 85% | 70 | 32 | 89% | 67% | 77
15 | 0.568 | 81% | 75% | 73% | C[C@@H](NC(=O)Nc1cccc(I)c1)c1ccccc1 | 66% | 44 | 26 | 71% | 57% | 53
16 | 0.568 | 98% | 95% | 93% | C[C@H](NC(=O)Nc1cccc(I)c1)c1ccccc1 | 83% | 66 | 43 | 90% | 72% | 80
17 | 0.556 | 100% | 91% | 85% | C[C@@H](NC(=O)Nc1ccc(I)cc1)c1ccccc1 | 78% | 58 | 35 | 79% | 69% | 63
18 | 0.556 | 99% | 97% | 95% | C[C@H](NC(=O)Nc1ccc(I)cc1)c1ccccc1 | 85% | 70 | 39 | 92% | 70% | 85
19 | 0.831 | 100% | 93% | 53% | C[C@@H](NC(=O)Nc1cc(C(F)(F)F)cc(C(F)(F)F)c1)c1ccccc1 | 65% | 34 | 10 | 49% | 56% | 30
20 | 0.831 | 101% | 95% | 86% | C[C@H](NC(=O)Nc1cc(C(F)(F)F)cc(C(F)(F)F)c1)c1ccccc1 | 65% | 33 | 13 | 69% | 57% | 44
21 | 0.523 | 101% | 101% | 99% | CCc1cccc(CC)c1NC(=O)N[C@H](C)c1ccccc1 | 63% | 25 | 6 | 77% | 54% | 53
22 | 0.523 | 101% | 93% | 83% | CCc1cccc(CC)c1NC(=O)N[C@@H](C)c1ccccc1 | 50% | 6 | 1 | 46% | 52% | 6
23 | 1.001 | 100% | 99% | 99% | C[C@@H](NC(=O)Nc1cc(C(C)(C)C)ccc1C(C)(C)C)c1ccccc1 | 63% | 23 | 11 | 73% | 57% | 43
24 | 1.001 | 98% | 98% | 97% | C[C@H](NC(=O)Nc1cc(C(C)(C)C)ccc1C(C)(C)C)c1ccccc1 | 59% | 15 | 8 | 74% | 56% | 46
25 | 0.435 | 100% | 99% | 90% | C[C@@H](NC(=O)Nc1cccc(F)c1F)c1ccccc1 | 66% | 31 | 5 | 85% | 53% | 73
26 | 0.435 | 100% | 100% | 100% | C[C@H](NC(=O)Nc1cccc(F)c1F)c1ccccc1 | 88% | 75 | 36 | 93% | 68% | 87
27 | 0.394 | 100% | 100% | 93% | C[C@@H](NC(=O)Nc1ccc(F)cc1F)c1ccccc1 | 61% | 21 | 4 | 82% | 53% | 66
28 | 0.486 | 101% | 103% | 93% | C[C@@H](NC(=O)Nc1ccccc1Cl)c1ccccc1 | 63% | 21 | 3 | 83% | 53% | 67
